SMILES strings stand for the structures.

As usually defined, the melting point is the temperature, or range, at which the solid turns liquid.

As to `CC(C)c1ccc(-c2ccc(-c3cccc(C(=O)O)c3)o2)cc1` [Compound No. 322, 3-[5-(4-isopropylphenyl)furan-2-yl]benzoic acid], the melting point lay within 172 to 176 °C.
Then `CC(C)c1ccc(-c2cc(-c3cccc(C(=O)O)c3)no2)cc1` [Compound 290], with 222 to 225 °C; and `COc1ccc(-c2cc(-c3cccc(C(=O)O)c3)on2)cc1` [Compound 500], with 246 to 247 °C.
Then `O=C(O)c1cccc(-c2nc(-c3ccc(F)cc3)n[nH]2)c1` [Compound 426], with more than 310 °C.
With `CC(C)(C)c1ccc(-c2cnc(-c3ccc(C(=O)O)cc3)o2)cc1` [Compound 636], the melting point lay in the range of 258 to 259 °C.
Regarding `COc1ccc(-c2cc(-c3ccc(C(=O)O)cc3)on2)cc1` [Compound 539], the melting point lay within 297.5 to 299.5 °C.
`O=C(O)c1ccc(-c2ncc(-c3ccccc3Cl)o2)cc1` [Compound 555] showed a melting point of 276 to 277 °C.
Then `CN(C)c1ccc(Cc2nnc(-c3ccc(C(=O)O)cc3)o2)cc1` [Compound 86], with 243 to 245 °C; and `CCc1ccc(-c2cnc(-c3ccc(C(=O)O)cc3)o2)cc1` [Compound 634], with 233 to 234 °C; and `O=C(O)c1ccc(-c2ncc(-c3cccc(C(F)(F)F)c3)o2)cc1` [Compound 543], with 286 to 287 °C.
Take `CC(C)c1ccc(-c2cnc(-c3ccc(C(=O)O)cc3)o2)cc1` [Compound 635]: the melting point was 233 to 234 °C.
As for `COc1ccc(-c2nnc(-c3ccc(C(C)C)cc3)o2)cc1C(=O)O` [Compound 402], the figure is 174 to 177 °C.
Then `CN(C)C(=O)c1ccc(-c2nnc(-c3ccc(C(=O)O)cc3)o2)cc1` [Compound 278], with more than 310 °C; and `COc1cccc(-c2cnc(-c3cccc(C(=O)O)c3)o2)c1` [Compound 594], with 207 to 208 °C; and `O=C(O)c1cccc(-c2nc(-c3ccc(Cl)cc3)no2)c1` [Compound 508], with 299 to 300 °C.
For `CC(C)(C)c1ccc(-c2cnc(-c3cccc(C(=O)O)c3)o2)cc1` [Compound 592], the melting point fell in the range of 224 to 225 °C.
As for `COC(=O)c1cccc(-c2cc(-c3ccccc3F)on2)c1` [Compound 464], the figure is 112 to 113.5 °C; as for `CC(C)c1ccc(-c2nc(-c3cccc(C(=O)O)c3)co2)cc1` [Compound No. 313, 3-[2-(4-isopropylphenyl)-oxazol-4-yl]benzoic acid], 236 to 239 °C.
As for `O=C(O)c1cccc(-c2cc(-c3ccc(F)cc3F)on2)c1` [Compound 478], the figure is 260 to 262 °C; as for `COc1ccc(-c2cc(-c3cccc(C(=O)O)c3)no2)cc1` [Compound 480], 249.5 to 251 °C; as for `O=C(O)c1cccc(-c2nc(-c3ccccc3O)n[nH]2)c1` [Compound 455], more than 300 °C.
As for `O=C(O)c1cccc(-c2cc(-c3ccc(C(F)(F)F)cc3)on2)c1` [Compound 574], the figure is 281 to 282 °C.
In turn, `O=C(O)c1ccc(-c2ncc(-c3ccccc3F)o2)cc1` [Compound 550] came in with a melting point of 272 to 273 °C.
Then `O=C(O)c1ccc(-c2ncc(-c3ccc4c(c3)OCO4)o2)cc1` [Compound 557], with 269 to 270 °C.
As for `CC(=O)Nc1cccc(-c2nnc(-c3ccc(C(=O)O)cc3)o2)c1` [Compound 14], the figure is more than 275 °C; as for `CC(C)c1cccc(-c2nnc(-c3ccc(C(=O)[O-])cc3)o2)c1.[Na+]` [Compound 628], more than 300 °C; as for `O=C(O)c1ccc(-c2nnc(-c3ccnc(Br)c3)o2)cc1` [Compound 292], 275 to 278 °C.
Then `CN(C)c1ccccc1-c1nnc(-c2ccc(C(=O)O)cc2)o1` [Compound 601], with 177 to 178 °C; and `CC(C)c1ccc(-c2coc(-c3cccc(C(=O)O)c3)c2C(=O)O)cc1` [Compound No. 314, 2-(3-carboxyphenyl)-4-(4-isopropylphenyl)furan-3-carboxylic acid], with 236 to 239 °C.
`Cc1ccc(-c2cc(-c3cccc(C(=O)O)c3)on2)cc1` [Compound 505]: the melting point was in the range of 253 to 254 °C.
Then `COc1ccccc1-c1n[nH]c(-c2cccc(C(=O)O)c2)n1` [Compound 459], with 287 to 290 °C; and `O=C(O)c1cccc(-c2nnc(-c3ccc(N4CCN(c5ccccc5)CC4)cc3)o2)c1` [Compound 84], with 279 to 282 °C; and `O=C(O)c1cccc(-c2nnc(-c3cc4ccccc4[nH]3)o2)c1` [Compound 315], with more than 310 °C.
Then `CC(C)c1ccc(-c2csc(-c3cccc(C(=O)O)c3)c2)cc1` [Compound No. 327, 3-[4-(4-isopropylphenyl)-thiophen-2-yl]-benzoic acid], with 220 to 222 °C.
As for `CC(C)c1ccc(-c2cc(-c3cccc(C(=O)O)c3)on2)cc1` [Compound 291], the figure is 200 to 212 °C; as for `CC(C)c1ccc(-c2cnc(-c3cccc(C(=O)O)c3)s2)cc1` [Compound No. 310, 3-[5-(4-Isopropyl-phenyl)thiazol-2-yl]benzoic acid], 218 to 220 °C.
`O=C(O)c1ccc(-c2ncc(-c3ccc(OC(F)(F)F)cc3)o2)cc1` [Compound 546] yielded a melting point of 222 to 224 °C.
As for `O=C(O)c1cccc(-c2cc(-c3ccccc3)on2)c1` [Compound 477], the figure is 245 to 247 °C; as for `CN(C)c1ccc(-c2nnc(-c3cccc(C(=O)[O-])c3)o2)cc1.[Na+]` [Compound 624], 227 to 235 °C (dec.); as for `CN(C)c1ccc(-c2nnc(-c3cccc(C(=O)O)c3)o2)cn1` [Compound 223], 272 to 274 °C.
As for `CC(C)c1ccc(-c2cnc(-c3cccc(C(=O)O)c3)o2)cc1` [Compound No. 288, 3-[5-(4-isopropylphenyl)-oxazol-2-yl]benzoic acid], the figure is 150 to 153 °C; as for `CC(C)c1ccc(-c2nnc(-c3cccc(C(=O)[O-])c3)o2)cc1.[Na+]` [Compound 626], 200 to 205 °C (dec.); as for `O=C(O)c1cccc(-c2nnc(-c3cccc4[nH]ccc34)o2)c1` [Compound 318], more than 310 °C.
Turning to `CC(C)(C)c1ccc(-c2nc(-c3ccc(C(=O)O)cc3)no2)cc1` [Compound 141], the melting point lay in the range of 237 to 239 °C.
As to `COc1cccc(-c2cc(-c3cccc(C(=O)O)c3)n[nH]2)c1` [Compound 551], the melting point is 238 to 239 °C.
With `O=C(O)c1cccc(-c2cc(-c3ccccc3F)no2)c1` [Compound 501], the melting point fell in the range of 231 to 232 °C.
Then `Cc1ccc(-c2noc(-c3cccc(C(=O)O)c3)n2)cc1` [Compound 512], with 243 to 244 °C; and `O=C(O)c1ccc(-c2ncc(-c3ccc(F)c(Cl)c3)o2)cc1` [Compound 649], with 295 to 297 °C; and `O=C(O)c1cccc(-c2nnc(-c3ccc(N4CCCC4)cc3)o2)c1` [Compound 280], with 274 to 276 °C.
As for `O=C(O)c1cccc(-c2nc(-c3ccc(-c4ccccc4)cc3)n[nH]2)c1` [Compound 429], the figure is more than 300 °C.

These data come from patent US9611230B2, “1,3,4-oxadiazole benzoic acid compounds and their use for nonsense suppression and the treatment of disease” (PTC Therapeutics, Inc., priority 2004, dated 2017).
